Several values for one entry are separate records, joined by “and”; a condition that tells them apart may be missing. Identical values can stand only once. Counter-ions that a name gives are not always drawn.
What was measured:
leukemia P 388 = experiment: Test of leukemia P 388; IP/IP, D1-5; type: in vivo, CDF1 hybrid mice; details: D1-D5; for Number of survivors: day D30; for T/C %: survival time
Protocol: (2) In vivo: (GERAN et al., Cancer Chemother., 1972, 2, 07-57):
(§1) The antitumour activity was tested in vivo on various tumours inoculated in various ways according to the following general protocol:
(§2) All the male or female mice are inoculated on day D0 with a known quantity of viable tumour cells for ascitic tumours or with a known tumour fragment for solid tumours.
(§3) They are then distributed into various groups. Each group, corresponding to the animals treated by the product under test, is made up of 10 mice. The product under test is dissolved in distilled water and it is administered n times (Dx-Dy), n, y, and x varying according to the protocol chosen, at the rate of 0.1 ml of solution per 10 g by weight of mice treated and at specific doses for each protocol.
(§4) The "negative control" group, corresponding to the animals which are not treated by the product, contains 2√N animals, N being equal to or greater than the total number of mice treated by the product in the same experiment.
(§5) Finally, the tests can also be carried out at the same time as the study of a group called "positive control", of ten animals, which is treated by a molecule, known for its antitumour activity and which can vary according to the protocol chosen, in the same conditions as the groups treated by the product under test.
(§6) The antitumour activity is evaluated, in the case of ascitic tumours, by considering the increase in the survival time of the animals treated in comparison to that of the animals in the "negative control" group, according to the formula: [formula]
The criterion for activity varies according to the protocol.
(§7) Also, a product is considered as toxic at the dose studied when this T/C value is equal to or less than 85%. In addition, a product is also considered as toxic at the dose studied when the weight variation, expressed in grams and calculated by the formula: […]
"Average weight of the group measured on day 5--Average weight of the same group measured on day 1"
is equal to or less than 4 g.
(a) Test of lelukemia P 388; IP/IP, D1-5 (GERAN et al., Cancer Chemother., 1972, 2, 07-57).
(§8) The tests are carried out with CDF1 hybrid mice inoculated by intraperitoneal route with 10^6 leukemia cells from the P 388 line. The compound under test is administered for 5 successive days (D1-D5) by intraperitoneal route. The positive control for the test is 5-fluorouracile which is administered in the same conditions. The number of surviving animals is evaluated on day D30.

[1] = test system: leukemia tumour line L 1210; experiment: In vitro cytotoxic activity on leukemia tumour line L 1210; type: cell-based; details: Mus musculus, L1210, 48 h, L 1210, 48 hours contact, 37° C.; read-out: I D 50 (concentration which inhibits the proliferation of the cells by 50%)
Protocol: (1) In vitro: ([…] et al., Chem. Biol. Interaction, 1979, 25, 45-58). The cytotoxic activity of the compounds of the invention has been evaluated by in vitro tests. These tests consist of adding increasing concentrations of the compound under test to a cellular culture of the leukemia tumour line L 1210 in an exponential phase of growth. The cellules are incubated at 37° C. in a CO2 incubator and counted every 24 hours. The calculation of the I D 50 (concentration of the product, expressed in 1^-1 micromole, which inhibits the proliferation of the cells by 50%) is made after 48 hours contact.

leukemia L 1210 = experiment: Test for leukemia L 1210, IP/IP, D1-D5; type: in vivo, CDF1 hybrid mice; details: 20 mg/kg IP
Protocol: as §1, §2, §3, §4, §5, §6, §7
(c) Test for leukemia L 1210, IP/IP, D-5 (GERAN et al., Cancer cheomother.,1972, 2, 07-57).
as §8, with “10^5” for “10^6”, “L 1210” for “P 388”, “5” for “5 successive”, “5-fluorouracile” for “5-fluorouracile which is”, “D60.” for “D30.”

leukemia P388 = experiment: Test for leukemia P388, IP/IP, D1; type: in vivo, CDF1 hybrid mice; details: 200 mg/kg IP
Protocol: as §1, §2, §3, §4, §5, §6, §7, §8
(b) Test for Leukemia P388, IP/IP, D1 (GERAN et al. Cancer chemother., 1972, 2, 07-57).
The test is carried out according to the preceding protocol, the compound under test being administered only on day D1.

melanoma B 16 = experiment: Test for melanoma B 16; type: in vivo, BDF1 hybrid mice; details: 0.5 mg/kg IP, D1-D9
Protocol: as §1, §2, §3, §4, §5, §6, §7
(d) Test for melanoma B 16 (GERAN et al., Cancer Chemother., 1972, 2, 07-75).
The tests are carried out with BDF1 hybrid mice inoculated by intraperitoneal route with 0.5 ml of a homogenate of melanoma B 16 made up from 1 g of tumour in 10 ml of physiological serum. The compound under test is administered for 9 days (D1-D9) by intraperitoneal route. The positive control for the test is Cis-Platine administered in the same conditions. The number of surviving animals is evaluated on day D60.

reticulosarcoma M5-M5076 = experiment: Test for reticulosarcoma M5-M5076; type: in vivo, BDF1 hybrid mice; details: 160 mg/kg IP, D1,5,9,13,17
Protocol: as §1, §2, §3, §4, §5, §6, §7
The tests are carried out with BDF1 hybrid mice inoculated by intraperitoneal route with 10^6 cells of the M5-M5076 line. The compound under test is administered 5 times successively in sequence (D1,5,9,13,17) by intraperitoneal route. The positive control for the test is cyclophosphamide administered in the same conditions. The number of surviving animals is evaluated on day D75.

**Q.** What does the source list for `COc1ccc2c(c1)c1c(NCCCN(C)C)ncc(C)c1n2C.Cl.Cl` [Derivative No. 13, 4,5-dimethyl-1-(3-dimethylaminopropylamino)-8-methoxy-5H-pyrido[4,3-b]indole dihydrochloride]?
**A.** Median day of survival (leukemia P 388; 5 mg/kg IP): 14.1 days; Variation by weight (g) (leukemia P 388; 5 mg/kg IP): +1.0 g; Number of survivors (leukemia P 388; 5 mg/kg IP): 0/10; T/C % (leukemia P 388; 5 mg/kg IP): 134%; Median day of survival (leukemia P 388; 10 mg/kg IP): 16.8 days; Variation by weight (g) (leukemia P 388; 10 mg/kg IP): +1.2 g; Number of survivors (leukemia P 388; 10 mg/kg IP): 0/10; T/C % (leukemia P 388; 10 mg/kg IP): 160%; Median day of survival (leukemia P 388; 20 mg/kg IP): 15.8 days; Variation by weight (g) (leukemia P 388; 20 mg/kg IP): +0.4 g; Number of survivors (leukemia P 388; 20 mg/kg IP): 0/10; T/C % (leukemia P 388; 20 mg/kg IP): 150%; Median day of survival (leukemia P 388; 40 mg/kg IP): 8.4 days; Variation by weight (leukemia P 388; 40 mg/kg IP): -2.5 g; Number of survivors (leukemia P 388; 40 mg/kg IP): 0/10; T/C % (leukemia P 388; 40 mg/kg IP): 80%; IC50 [1]: 130 nM

**Q.** For `COc1ccc2c(c1)c1c(NCC(C)CN(C)C)ncc(C)c1n2C` (racemic) [Derivative No. 20, 4,5-dimethyl-1-(3-dimethylamino-2-methylpropylamino)-8-methoxy-5pyrido[4,3-b]i dihydrochloride], which IC50 [1] is on record?
**A.** Its IC50 is 1000 nM.

**Q.** With `CCN(CC)CCCCNc1ncc(C)c2c1c1cc(OC)ccc1n2C` [Derivative No. 22, 1-(4-diethylaminobutylamino)-4,5-dimethyl-8-methoxy-5H-pyrido[4,3-b]indoledihydrochloride] as the molecule, how does the IC50 [1] read?
**A.** Its IC50 is 1300 nM.

**Q.** Which results are given for `Cc1cnc(NCCCN(C)C)c2c3ccccc3n(C)c12.Cl.Cl` [Derivative No. 17, 4,5-dimethyl 1-(3-dimethylaminopropylamino)-5H-pyrido[4,3-b]indole dihydrochloride]?
**A.** Median day of survival (leukemia P 388; 24 mg/kg IP): 15.4 days; Variation by weight (leukemia P 388; 24 mg/kg IP): 0.0 g; Number of survivors (leukemia P 388; 24 mg/kg IP): 0/10; T/C % (leukemia P 388; 24 mg/kg IP): 131%; IC50 [1]: 350 nM

**Q.** `O=c1[nH]cc(F)c(=O)[nH]1` [5-Fluorouracile, 5-fluorouracile, reference compound] was tested. Which “Median day of survival” value (leukemia P 388; 20 mg/kg IP) did it give?
**A.** Its value is 20.1 days and 18.9 days and 19 days and 17.75 days and 16.7 days and 18.8 days and 20 days and 17 days.

**Q.** And the Number of survivors (leukemia P 388; 20 mg/kg IP)?
**A.** Its Number of survivors is 0/10.

**Q.** And the T/C % (leukemia P 388; 20 mg/kg IP)?
**A.** Its T/C % is 166% and 164% and 168% and 160% and 147% and 173% and 171% and 154%.

**Q.** And the “Median day of survival” value (leukemia L 1210)?
**A.** The value was 16.0 days.

**Q.** What about the “Variation by weight” value (leukemia L 1210) of the same molecule?
**A.** Its value is -0.5 g.

**Q.** What about the Number of survivors (leukemia L 1210; day D60) of the same molecule?
**A.** The Number of survivors was 0/10.

**Q.** And the T/C % (leukemia L 1210; survival time)?
**A.** Its T/C % is 182%.

**Q.** What about the “Median day of survival” value (leukemia P388) of the same molecule?
**A.** The value was 19.0 days.

**Q.** And the “Variation by weight” value (leukemia P388)?
**A.** The value was -3.2 g.

**Q.** What about the Number of survivors (leukemia P388; day D30) of the same molecule?
**A.** The Number of survivors was 0/10.

**Q.** What about the T/C % (leukemia P388; survival time) of the same molecule?
**A.** The T/C % was 173%.

**Q.** For `CCN(CC)CCNc1ncc(C)c2c1c1cc(OC)ccc1n2C` [Derivative No. 18, 1-(2-diethylaminoethylamino)-4,5-dimethyl-8-methoxy-5H-pyrido[4,3-b]indole dihydrochloride], which IC50 [1] is on record?
**A.** Its IC50 is 1200 nM.

**Q.** For `Cc1cnc(NCC(C)CN(C)C)c2c3cc(O)ccc3n(C)c12` (racemic) [Derivative No. 21, 4,5-dimethyl-1-(3-dimethylamino-2-methylpropylamino)-8-hydroxy-5H-pyrido[4,3-b]dihydrochloride], which IC50 [1] is on record?
**A.** The IC50 was 10 nM.

**Q.** Which IC50 [1] does the source give for `Cc1cnc(NCCNCCO)c2c1[nH]c1ccccc12` [Derivative 3] here?
**A.** The IC50 was 1140 nM.

**Q.** For `CCN(CC)CCCNc1ncc(C)c2[nH]c3ccccc3c12` [Derivative 1], which IC50 [1] is on record?
**A.** The IC50 was 200 nM.

**Q.** How did the IC50 [1] turn out when `CCN(CC)CCCNc1ncc(C)c2c1c1ccccc1n2C` [Derivative No. 16, 1-(3-diethylaminopropylamino)-4,5-dimethyl-5H-pyrido[4,3-b]indole dihydrochloride] was run?
**A.** Its IC50 is 720 nM.

**Q.** `Cc1cnc(NCCCN(C)C)c2c1[nH]c1ccccc12` [Derivative No. 2, 1-(3-dimethylaminopropylamino)-4-methyl-5H-pyrido-[4,3-b]indole] was tested. Which IC50 [1] did it give?
**A.** Its IC50 is 160 nM.

**Q.** Which “Median day of survival” value (melanoma B 16) does the source give for `[NH2][Pt]([NH2])([Cl])[Cl]` [Cis-Platine, reference compound] here?
**A.** Its value is 36 days and 30.0 days and 38.75 days.

**Q.** And the “Variation by weight” value (melanoma B 16)?
**A.** The value was -0.6 g.

**Q.** What about the Number of survivors (melanoma B 16; day D60) of the same molecule?
**A.** The Number of survivors was 0/10.

**Q.** And the T/C % (melanoma B 16; survival time)?
**A.** The T/C % was 131% and 126% and 141%.

**Q.** `CCN(CC)CCCCNc1ncc(C)c2c1c1cc(O)ccc1n2C` [Derivative No. 23, 1-(4-diethylaminobutylamino)-4,5-dimethyl-8-hydroxy-5H-pyrido[4,3-b]indoledihydrochloride] was tested. Which IC50 [1] did it give?
**A.** The IC50 was 310 nM.

**Q.** How did the IC50 [1] turn out when `CCNCCCNc1ncc(C)c2[nH]c3ccc(OC)cc3c12` [Derivative No. 5, 1-(3-ethylaminopropylamino)-8-methoxy-4-methyl-5H-pyrido[4,3-b]indole] was run?
**A.** Its IC50 is 1200 nM.

**Q.** For `CCN(CC)CCCNc1ncc(C)c2c1c1cc(OC)ccc1n2C` [Derivative No. 6, 1-(3-diethylaminopropylamino)-4,5-dimethyl-8-methoxy-5H-pyrido[4,3-b]indole], which IC50 [1] is on record?
**A.** Its IC50 is 100 nM.

**Q.** Which “Median day of survival” value (reticulosarcoma M5-M5076) does the source give for `O=P1(N(CCCl)CCCl)NCCCO1` (stereo not drawn) [Cyclopnospnamide, cyclophosphamide, reference compound] here?
**A.** Its value is > 60 days and 57.0 days.

**Q.** And the Number of survivors (reticulosarcoma M5-M5076; day D75)?
**A.** The Number of survivors was 9/10 and 0/10.

**Q.** What about the T/C % (reticulosarcoma M5-M5076; survival time) of the same molecule?
**A.** The T/C % was > 239% and 219% and > 234%.

From patent US4835160A, “Derivatives of pyridoindole, having anti-tumor properties” (Sanofi, priority 1986, dated 1989)
